Measured values reported in paper PMC12757481, “The dihydropyridine LA1011 modulates multiple Hsp90—co-chaperone interactions relevant to Alzheimer’s disease” (Cell Stress & Chaperones, 2025).
Like-named read-outs stand apart in the source and are kept apart here.

Experiments:
[1] = target: T1, Hsp90 (Saccharomyces cerevisiae, UniProt P02829); assay: ITC, LA1011 binding to nucleotide-free Hsp90; design: species or system yeast; details: ITC 30 °C, 2 mM LA1011 injected into 30 μM Hsp90
T1 construct: made in house
Description: (§1) The heat of interaction was measured on an ITC200 microcalorimeter (Microcal) under the same buffer conditions (20 mM Tris, pH 7.5, containing 5 mM NaCl), except for experiments using PP5, where we omitted EDTA and used 1 μM MnCl2. In experiments using nucleotide, we used 5 mM AMPPNP and 6 mM MgCl2. For experiments using Aha1 with AMPPNP the buffer contained 100 mM NaCl. Similarly, Sgt1 experiments also included 100 mM NaCl in the buffer. […] Heats of dilution were determined by diluting the injectant into the buffer. Data were fitted using a curve-fitting algorithm (Microcal Origin) either as a one-site binding event or as two independent binding sites as required.
(§2) To circumvent this limitation, we can alternatively fit the two sites as equal thermodynamic events, and the Kd value or values(s) returned then act as an indicator for changes in the overall affinity for LA1011 binding. […] Thus, our overall approach is to use a stoichiometry of 1:1 that represents the binding of two LA1011 molecules (because there are two binding sites) per Hsp90 dimer, except where we are confident that the stoichiometry is 2:1 (Hsp90 dimer and one LA1011 molecule). […] Thus, prior to choosing the ITC fitting parameters, we first consider the availability of both LA1011 binding sites for complexes of Hsp90 with its co-chaperone partner. […]

[2] = target: T2, Hsp90-AMPPNP (Saccharomyces cerevisiae, UniProt P02829); assay: ITC, LA1011 binding to Hsp90-AMPPNP; design: species or system yeast; details: 30 μM Hsp90, 5 mM AMPPNP
T2 construct: made in house
Description: as §1, §2

[3] = target: T3, Hsp90-FKBP51 (Saccharomyces cerevisiae, UniProt P02829); assay: ITC, LA1011 binding to Hsp90-FKBP51 complex; design: species or system yeast; details: 30 μM Hsp90, 60 μM FKBP51, 2:1 fit
T3 construct: made in house
Description: as §1
(§3) Thus, our overall approach is to use a stoichiometry of 1:1 that represents the binding of two LA1011 molecules (because there are two binding sites) per Hsp90 dimer, except where we are confident that the stoichiometry is 2:1 (Hsp90 dimer and one LA1011 molecule).

[4] = target: T4, Hsp90-FKBP52 (Saccharomyces cerevisiae, UniProt P02829); assay: ITC, LA1011 binding to Hsp90-FKBP52 complex; design: species or system yeast; details: 30 μM Hsp90, 60 μM FKBP52, 2:1 fit
T4 construct: made in house
Description: as §1, §3

[5] = target: T5, Hsp90-CHIP (Saccharomyces cerevisiae, UniProt P02829); assay: ITC, LA1011 binding to Hsp90-mouse CHIP complex; design: species or system yeast; details: 20 μM Hsp90, 60 μM CHIP
T5 construct: made in house
Description: as §1, §2

[6] = target: T6, Hsp90-p23-PNP (Saccharomyces cerevisiae, UniProt P02829); assay: ITC, LA1011 binding to AMPPNP-Hsp90-p23 complex; design: species or system yeast; details: 30 μM Hsp90, 200 μM p23, 5 mM Mg-PNP
T6 construct: made in house
Description: as §1, §2

[7] = target: T7, Hsp90-Aha1 (Saccharomyces cerevisiae, UniProt P02829); assay: ITC, LA1011 binding to nucleotide-free Hsp90-yeast Aha1 complex; details: 20 μM Hsp90, 40 μM yAha1, nucleotide-free
T7 construct: made in house
Description: as §1, §2

[8] = target: T8, Hsp90-CDC37 (Saccharomyces cerevisiae, UniProt P02829); assay: ITC, LA1011 binding to Hsp90-CDC37 complex; design: species or system yeast
T8 construct: made in house
Description: as §1, §3

[9] = target: T9, Hsp90-Sgt1 (Saccharomyces cerevisiae, UniProt P02829); assay: ITC, LA1011 binding to Hsp90-Sgt1 complex; design: species or system yeast; details: 30 μM Hsp90, 60 μM Sgt1, 100 mM NaCl, 2:1 fit
T9 construct: made in house
Description: as §1, §3

[10] = target: T1, Hsp90; assay: Lactate-dehydrogenase and pyruvate-kinase-linked Hsp90 ATPase assay; format: biochemical, yeast; details: for effect on Hsp90 ATPase activity: 2 μM Hsp90; for effect of LA1011 on the co-chaperone directed regulation of Hsp90 ATPase activity: 2 μM Hsp90, 240 μM LA1011, co-chaperone 0.25 to 30 μM, normalized data compared with control lacking LA1011
Description: ATPase assays using 2 μM Hsp90 were conducted as previously described using the lactate-dehydrogenase and pyruvate-kinase-linked assay.[12] Briefly, 240 μM of LA1011 was used in assays as required. Co-chaperones were added to Hsp90 and Hsp90-LA1011 complex at a variety of concentrations ranging from 0.25 to 30 μM. Assays utilizing LA1011 were normalized by recalculating the activity for all data points so that the data points were converted to a percentage of the activity relative to the first data point, which lacked any addition of co-chaperone. The first data point was therefore 100% max Hsp90 activity. All assays were conducted at least in triplicate.
To assess the effect of LA1011 on the mechanistic action of co-chaperones, we used the lactate-dehydrogenase and pyruvate-kinase-linked Hsp90 ATPase assay. We first assessed the effect of each co-chaperone on Hsp90 ATPase activity and then compared its effect on a Hsp90-LA1011 complex.

[11] = target: Hsp90-HOP (Saccharomyces cerevisiae, UniProt P02829); details: ITC, 20 μM Hsp90, 40 μM HOP
Description: as §1, §3

[12] = test system: APPxPS1 AD mouse model; design: method as in PMID 27163800; details: APPxPS1 mice, versus untreated mice; cited from earlier work
[13] = target: Hsp90; design: method as in PMID 29930942; details: previously measured; cited from earlier work
[14] = target: T1, Hsp90; assay: ITC, co-chaperone binding to Hsp90; design: species or system yeast
Description: (§4) The heat of interaction was measured on an ITC200 microcalorimeter (Microcal) under the same buffer conditions (20 mM Tris, pH 7.5, containing 5 mM NaCl), except for experiments using PP5, where we omitted EDTA and used 1 μM MnCl2. In experiments using nucleotide, we used 5 mM AMPPNP and 6 mM MgCl2. For experiments using Aha1 with AMPPNP the buffer contained 100 mM NaCl. Similarly, Sgt1 experiments also included 100 mM NaCl in the buffer. […] To assess co-chaperone binding to Hsp90 and Hsp90-LA1011 complex, we generally injected aliquots of co-chaperone at concentrations ranging from 200 to 400 μM into the microcell containing the Hsp90 or Hsp90-LA1011 complex at concentrations ranging from 20 to 30 μM of Hsp90 or Hsp90 in complex with 2 mM LA1011 at 30 °C. Heats of dilution were determined by diluting the injectant into the buffer. Data were fitted using a curve-fitting algorithm (Microcal Origin) either as a one-site binding event or as two independent binding sites as required.

[15] = target: T10, Hsp90-LA1011 (Saccharomyces cerevisiae, UniProt P02829); assay: ITC, co-chaperone binding to Hsp90-LA1011 complex; design: species or system yeast
T10 construct: made in house
Description: as §4

[16] = target: T11, Hsp90-PNP (Saccharomyces cerevisiae, UniProt P02829); assay: ITC, co-chaperone binding to Hsp90-AMPPNP; design: species or system yeast; details: 5 mM AMPPNP, no LA1011, for Aha1 the Hsp90-PNP was the injectant
T11 construct: made in house
Description: as §4

[17] = target: T12, Hsp90-LA1011-PNP (Saccharomyces cerevisiae, UniProt P02829); assay: ITC, co-chaperone binding to Hsp90-AMPPNP-LA1011 complex; design: species or system yeast; details: 5 mM AMPPNP, 2 mM LA1011, for Aha1 the Hsp90-LA1011-PNP was the injectant
T12 construct: made in house
Description: as §4

[18] = ITC 30 °C, co-chaperone and Hsp90 without LA1011, one-site fit, read-out: Kd
[19] = ITC 30 °C, Hsp90 in complex with 2 mM LA1011, one-site fit, read-out: Kd

T10 sequence (P02829 whole entry): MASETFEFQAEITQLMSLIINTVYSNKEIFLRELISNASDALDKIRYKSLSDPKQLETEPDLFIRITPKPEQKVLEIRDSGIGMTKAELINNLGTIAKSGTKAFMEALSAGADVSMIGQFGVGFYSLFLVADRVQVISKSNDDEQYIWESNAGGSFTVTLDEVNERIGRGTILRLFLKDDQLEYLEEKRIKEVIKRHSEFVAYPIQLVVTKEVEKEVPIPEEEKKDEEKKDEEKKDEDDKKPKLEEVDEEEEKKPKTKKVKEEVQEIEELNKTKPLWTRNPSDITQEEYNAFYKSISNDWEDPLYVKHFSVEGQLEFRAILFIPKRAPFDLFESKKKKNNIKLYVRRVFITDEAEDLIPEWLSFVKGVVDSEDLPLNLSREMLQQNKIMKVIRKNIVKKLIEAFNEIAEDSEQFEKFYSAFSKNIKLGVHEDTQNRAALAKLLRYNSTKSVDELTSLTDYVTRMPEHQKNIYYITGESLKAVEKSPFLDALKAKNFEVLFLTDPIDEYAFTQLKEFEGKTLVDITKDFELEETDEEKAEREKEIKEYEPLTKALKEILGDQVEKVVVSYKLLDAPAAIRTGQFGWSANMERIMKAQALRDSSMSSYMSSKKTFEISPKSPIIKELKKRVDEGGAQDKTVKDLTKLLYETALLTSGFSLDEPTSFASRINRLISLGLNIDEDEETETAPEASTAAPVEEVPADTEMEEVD
T1 sequence (P02829 whole entry): as above
T5 sequence (P02829 whole entry): as above
T5 sequence (Q9WUD1 whole entry partner): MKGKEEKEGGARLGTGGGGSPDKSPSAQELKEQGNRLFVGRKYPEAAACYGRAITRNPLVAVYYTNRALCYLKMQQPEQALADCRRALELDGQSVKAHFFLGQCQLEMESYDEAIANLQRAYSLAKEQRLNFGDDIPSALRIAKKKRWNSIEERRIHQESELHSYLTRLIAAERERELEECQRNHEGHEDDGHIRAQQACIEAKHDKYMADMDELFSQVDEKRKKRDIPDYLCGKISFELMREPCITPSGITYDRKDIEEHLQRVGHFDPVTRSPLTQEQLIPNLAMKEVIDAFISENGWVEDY
T2 sequence (P02829 whole entry): as the sequence (P02829 whole entry) above
Chain of Hsp90-HOP (P02829 whole entry): as above
Chain of Hsp90-HOP (P31948 whole entry partner): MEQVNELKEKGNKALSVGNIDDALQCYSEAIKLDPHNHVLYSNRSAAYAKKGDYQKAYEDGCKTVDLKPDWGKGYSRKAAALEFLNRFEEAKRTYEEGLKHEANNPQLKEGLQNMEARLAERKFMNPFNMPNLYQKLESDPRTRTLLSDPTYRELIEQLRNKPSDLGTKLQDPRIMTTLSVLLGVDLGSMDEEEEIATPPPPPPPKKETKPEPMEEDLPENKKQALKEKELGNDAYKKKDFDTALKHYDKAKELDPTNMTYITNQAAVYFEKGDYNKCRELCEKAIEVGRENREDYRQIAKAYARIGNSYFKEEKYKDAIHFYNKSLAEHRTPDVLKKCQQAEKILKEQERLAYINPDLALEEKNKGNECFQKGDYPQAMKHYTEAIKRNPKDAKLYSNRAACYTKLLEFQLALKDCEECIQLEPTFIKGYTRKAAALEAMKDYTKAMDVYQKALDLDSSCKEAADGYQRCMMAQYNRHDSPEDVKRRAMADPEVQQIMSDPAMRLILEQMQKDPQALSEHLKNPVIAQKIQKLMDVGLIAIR

## COC(=O)C1=C(CCN(C)C)N(C)C(CCN(C)C)=C(C(=O)OC)C1c1ccc(C(F)(F)F)cc1.Cl.Cl [LA1011, dimethyl 4-(4-Trifluoro-methyl-phenyl)-2,6-bis(2-dimethylamino-ethyl)-1-methyl-1-4 dihydropyridine-3-5-dicarboxylate dihydrochloride]
[1]; 1:1 stoichiometric fit, read-out: Kd (1:1)
  Kd: 19.8 ± 2.2 µM
[1]; 2:1 (Hsp90:LA1011) stoichiometric fit, read-out: Kd (2:1)
  Kd: 28.9 ± 1.7 µM
[2]; 1:1 fit, read-out: Kd (1:1)
  Kd: 58.8 ± 24.2 µM
[2]; 2:1 fit, read-out: Kd (2:1)
  Kd: 73 ± 3.1 µM
[3]
  Kd: 79.4 ± 33.5 µM
[4]
  Kd: 56.2 ± 5.8 µM
[5]; 1:1 fit, read-out: Kd (1:1)
  Kd: 56.2 ± 26.2 µM
[5]; 2:1 fit, read-out: Kd (2:1)
  Kd: 69 ± 2 µM
[6]; 1:1 fit, read-out: Kd (1:1)
  Kd: 58.8 ± 3.5 µM
[6]; 2:1 fit, read-out: Kd (2:1)
  Kd: 73 ± 4.5 µM
[7]; 1:1 fit, read-out: Kd (1:1)
  Kd: 118 ± 8 µM
[7]; 2:1 fit, read-out: Kd (2:1)
  Kd: 53.2 ± 5.5 µM
[8]; 20 μM Hsp90, 40 μM CDC37, 1:1 fit, read-out: Kd (1:1)
  Kd: 4.2 ± 0.8 µM
[8]; 20 μM Hsp90, 40 μM CDC37, 2:1 fit, read-out: Kd (2:1)
  Kd: 9.5 ± 2.5 µM
[9]
  Kd: 8.2 ± 1 µM
[10]
  effect on Hsp90 ATPase activity: activators of Hsp90 ATPase activity
[11]; read-out: Kd (1:1), 1:1 fit
  Kd: 8.8 ± 1.3 µM
[11]; read-out: Kd (2:1), 2:1 fit
  Kd: 8.8 ± 1.3 µM
[12]
  amyloid-beta (Aβ) plaques: decreases
  dendritic spine density: increase in the dendritic spine density
  heat-shock-response: co-induction of the heat-shock-response
  neurofibrillary tangles: decreases in neurofibrillary tangles
  neuron number: increase in neuron number
[13]
  Kd: 13.5 µM

## Aha1: yeast Aha1, late-cycle Hsp90 co-chaperone and activator of Hsp90 ATPase activity
[14]; [18]
  Kd: 2.4 ± 0.2 µM
[15]; [19]
  Kd: 3.3 ± 0.4 µM
[16]
  Kd: 1.2 µM
[17]
  Kd: 1.8 µM
[10]
  effect on Hsp90 ATPase activity: activators of Hsp90 ATPase activity
  effect of LA1011 on the co-chaperone directed regulation of Hsp90 ATPase activity: significantly less Aha1 is required to fully activate Hsp90

## CDC37: Hsp90 co-chaperone of early complex assembly
[14]; [18]
  Kd: 1.59 µM
[15]; [19]
  Kd: 1.3 µM
[10]
  effect of LA1011 on the co-chaperone directed regulation of Hsp90 ATPase activity: unaffected by the presence of LA1011

## HOP: Hsp90 co-chaperone found in early complexes of the chaperone cycle
[14]; [18]
  Kd: 0.43 µM
[15]; [19]
  Kd: 0.3 µM

## Hch1: Hsp90 co-chaperone homologous to the N-terminal domain of Aha1
[14]; [18]
  Kd: 6.9 µM
[15]; [19]
  Kd: 11.6 µM

## PP5: full-length PP5, phosphatase co-chaperone of Hsp90
[14]; ITC, Hsp90 without LA1011, two-site fit, value listed first in Table 2 and figures, read-out: Kd (two-site fit, first value listed)
  Kd: 0.64 µM
[14]; ITC, Hsp90 without LA1011, two-site fit, value listed second in Table 2 and figures, read-out: Kd (two-site fit, second value listed)
  Kd: 0.16 µM
[15]; ITC, Hsp90 with 2 mM LA1011, two-site fit, value listed first in Table 2 and figures, read-out: Kd (two-site fit, first value listed)
  Kd: 9.6 µM
[15]; ITC, Hsp90 with 2 mM LA1011, two-site fit, value listed second in Table 2 and figures, read-out: Kd (two-site fit, second value listed)
  Kd: 9.2 µM

## Sti1: the yeast homolog of human HOP
[10]
  effect of LA1011 on the co-chaperone directed regulation of Hsp90 ATPase activity: unaffected by the presence of LA1011

## p23: Hsp90 co-chaperone that promotes the closed conformation of Hsp90
[16]
  Kd: 4.2 µM
[17]
  Kd: 8.9 µM
[10]
  effect of LA1011 on the co-chaperone directed regulation of Hsp90 ATPase activity: unaffected by the presence of LA1011
